The values that follow come from US20220016092A1, “METHODS FOR TREATING SYMPTOMS AND DISORDERS ASSOCIATED WITH LYSOSOMAL STORAGE DISEASES” (GENZYME CORPORATION, priority 2019, published 2022).

Assay [1] relates to GM3 expression in B16 mouse melanoma cells. Nature of the assay: GM3 fluorescent-linked immunosorbent assay (FLISA), B16 cells. It counts as cell-based. The conditions noted are these: 48 hours. The source says:
(§1) Inhibition of glucosylceramide synthase activity can be measured with one or more assays. A first assay is a microsomal assay that directly measures the conversion of ceramide to glucosylceramide by HPLC. Microsomes are a source of glucosylceramide synthase activity in the microsomal assay. A second assay is a cell based, phenotypic assay that monitors cell surface expression of the downstream lipid GM3 by antibody mediated immunofluorescence. Specific protocols are provided below.
(§2) This is a phenotypic assay that measures GM3 expression in B16 mouse melanoma or C32 human melanoma cells following treatment with test compounds. Cell surface GM3 expression is determined by antibody mediated fluorescence.
(§3) Compounds are diluted in media and plated in 384 well plates in DMSO. B16 and C32 cells are assayed at densities of 20,000 cells/ml and 62,500 cells/ml, respectively, per well. Each titration curve contains 10 points that are assayed in duplicate on each test run. The plates are incubated for 48 hours at 37° C., 5% CO2, and are then washed once with TBS. Anti-GM3 antibody is added to each well and the plates are then incubated for an additional one hour at room temperature. Plates are subsequently washed twice and incubated for an additional hour with the labeled secondary antibody. Following the final incubation, the plates are washed twice and the fluorescence at λex=D640/20 nm and λem=657 nm is detected on a fluorescent reader.
(§4) The results of the microsomal assays are expressed as “GCS IC50”, which represents the concentration of the compound causing 50% inhibition of glucosylceramide synthase activity. The results of the cell-based assays are expressed as “GM3 B16 IC50” or “GM3 C32 IC50” for the B16 assay and the C32 assay, respectively. These values represent the concentration of the compound causing 50% inhibition of GM3 expression on the cell surface.

Assay [2] concerns GM3 expression in C32 human melanoma cells. Briefly: GM3 fluorescent-linked immunosorbent assay (FLISA), C32 cells. The conditions noted are these: 48 hours. It counts as cell-based.
From the text: as §1, §2, §3, §4

Assay [3] deals with GL-3, lyso-GL-3, GL-1 and GM3. To be noted: Fabry patients of the historical phase 3 trial (Eng et al. 2001), matched; after 156 weeks; cited from earlier work.

Take `CC(C)(NC(=O)OC1CN2CCC1CC2)c1cccc(-c2ccc(F)cc2)c1` (stereo not drawn) [Compound 1, 1-azabicyclo[2.2.2]oct-3-yl[2-(4′-fluorobiphenyl-3-yl)propan-2-yl]carbamate]: the IC50 (as a rule, the point on the concentration scale where inhibition reaches its midpoint) in assay [1] turned out to be 15.6 nM; in assay [2], 2.1 nM.

On to `COCCOc1ccc(-c2ccc(C(C)(C)NC(=O)O[C@@H]3CN4CCC3CC4)cc2)cc1` [Compound 3, (S)-quinuclidin-3-yl(2-(4′-(2-methoxyethoxy)-[1,1′-biphenyl]-4-yl)propan-2-yl)carbamate], for which the results for the IC50 in assay [1] and in assay [2] were 43.7 nM and 1.31 nM, respectively.

With `CC(C)(NC(=O)OC1CN2CCC1CC2)c1cccc(-c2ccccc2)c1` (stereo not drawn) [Compound 4, 1-azabicyclo[2.2.2]oct-3-yl[2-(biphenyl-3-yl)propan-2-yl]carbamate], the IC50 was determined as 11.6 nM in assay [1] and 0.8 nM in assay [2].

Take `CC(C)(NC(=O)O[C@@H]1CN2CCC1CC2)c1ccc(-c2ccccc2)cc1` [Compound 5, (S)-quinuclidin-3-yl 2-(biphenyl-4-yl)propan-2-ylcarbamate]: the IC50 in assay [1] was 19.3 nM; in assay [2] it was 0.3 nM.

On to `O=C(NC1(c2ccc(-c3ccccc3)cc2)CC1)OC1CN2CCC1CC2` (stereo not drawn) [Compound 6, Quinuclidin-3-yl 1-(biphenyl-4-yl)cyclopropylcarbamate], for which the IC50 was determined as 18.1 nM in assay [1] and 0.6 nM in assay [2].

With `O=C(NC1(c2ccc(-c3ccc(F)cc3)cc2)CC1)O[C@@H]1CN2CCC1CC2` [Compound 7, (S)-quinuclidin-3-yl 1-(4′-fluorobiphenyl-4-yl)cyclopropylcarbamate], the 50% inhibitory concentration (IC50) in assay [1] came to 8.1 nM; in assay [2], 0.4 nM.

Consider `O=C(NC1(c2ccc(-c3ccc(F)cc3F)cc2)CC1)O[C@@H]1CN2CCC1CC2` [Compound 8, (S)-1-azabicyclo[2.2.2]oct-3-yl[1-(2′,4′-difluorobiphenyl-4-yl)cyclopropyl]carbamate], for which the IC50 in assay [1] turned out to be 7.5 nM; in assay [2], 0.4 nM.

In the case of `COc1ccc(-c2ccc(C3(NC(=O)OC4CN5CCC4CC5)CC3)cc2)cc1` (stereo not drawn) [Compound 9, 1-azabicyclo[2.2.2]oct-3-yl[1-(4′-methoxybiphenyl-4-yl)cyclopropyl]carbamate], the IC50 in assay [1] was 16.8 nM; in assay [2] it was 0.4 nM.

As to `CC(C)(NC(=O)OC1CN2CCC1CC2)c1csc(-c2ccc(F)cc2)c1` (stereo not drawn) [Compound 10, Quinuclidin-3-yl 2-(5-(4-fluorophenyl)thiophen-3-yl)propan-2-ylcarbamate], the results for the IC50 in assay [1] and in assay [2] were 21.3 nM and 2.2 nM, respectively.

Regarding `CC(C)(NC(=O)O[C@@H]1CN2CCC1CC2)c1cc(-c2ccc(F)cc2)ns1` [Compound 11, (S)-quinuclidin-3-yl 2-(3-(4-fluorophenyl)isothiazol-5-yl)propan-2-ylcarbamate], the results for the IC50 in assay [1] and in assay [2] were 81.9 nM and 1.8 nM, respectively.

On to `CC(C)(NC(=O)O[C@@H]1CN2CCC1CC2)c1nc(-c2ccc(F)cc2)cs1` [Compound 12, (S)-quinuclidin-3-yl 2-(4-(4-fluorophenyl)thiazol-2-yl)propan-2-ylcarbamate], for which the figures for the IC50 in assay [1] and in assay [2] were 87.8 nM and 3.7 nM, respectively.

As to `COCCOc1ccc(-c2ccc(C(C)(C)NC(=O)OC3CN4CCC3CC4)cc2)cc1` (stereo not drawn) [Compound 13, Quinuclidin-3-yl(2-(4′-(2-methoxyethoxy)-[1,1′-biphenyl]-4-yl)propan-2-yl)carbamate], the IC50 in assay [1] was found to be 38.6 nM; in assay [2], 0.7 nM.

Regarding `COCCOc1cccc(-c2ccc(C(C)(C)NC(=O)O[C@@H]3CN4CCC3CC4)cc2)c1` [Compound 14, (S)-quinuclidin-3-yl(2-(3′-(2-methoxyethoxy)-[1,1′-biphenyl]-4-yl)propan-2-yl)carbamate], the IC50 in assay [1] was 110 nM; in assay [2], 5.3 nM.

On to `COCCOc1ccc(-c2cccc(C(C)(C)NC(=O)OC3CN4CCC3CC4)c2)cc1` (stereo not drawn) [Compound 15, Quinuclidin-3-yl(2-(4′-(2-methoxyethoxy)-[1,1′-biphenyl]-3-yl)propan-2-yl)carbamate], for which the results for the IC50 in assay [1] and in assay [2] were 29.5 nM and 4.9 nM, respectively.

For the molecule `COCCCOc1ccc(-c2ccc(C(C)(C)NC(=O)OC3CN4CCC3CC4)cc2)cc1` (stereo not drawn) [Compound 16, Quinuclidin-3-yl(2-(4′-(3-methoxypropoxy)-[1,1′-biphenyl]-4-yl)propan-2-yl)carbamate], the IC50 in assay [1] turned out to be 66.6 nM; in assay [2], 1.6 nM.

With `CC(C)(NC(=O)OC1CN2CCC1CC2)c1ccc(-c2ccc(CO)cc2)cc1` (stereo not drawn) [Compound 17, Quinuclidin-3-yl(2-(4′-(hydroxymethyl)-[1,1′-biphenyl]-4-yl)propan-2-yl)carbamate], the IC50 in assay [1] was found to be 879 nM; in assay [2], 21.6 nM.

For `CC(C)(NC(=O)OC1CN2CCC1CC2)c1ccc(-c2ccc(CCO)cc2)cc1` (stereo not drawn) [Compound 18, Quinuclidin-3-yl(2-(4′-(2-hydroxyethyl)-[1,1′-biphenyl]-4-yl)propan-2-yl)carbamate], the values for the IC50 in assay [1] and in assay [2] were 656 nM and 22.3 nM, respectively.

As for `COCCCOc1ccc(-c2nc(C(C)(C)NC(=O)OC3CN4CCC3CC4)cs2)cc1` (stereo not drawn) [Compound 19, Quinuclidin-3-yl(2-(2-(4-(3-methoxypropoxy)phenyl)thiazol-4-yl)propan-2-yl)carbamate], the figures for the IC50 in assay [1] and in assay [2] were 197 nM and 42.6 nM, respectively.

With `COCCOc1ccc(-c2nc(C(C)(C)NC(=O)OC3CN4CCC3CC4)cs2)cc1` (stereo not drawn) [Compound 20, Quinuclidin-3-yl(2-(2-(4-(2-methoxyethoxy)phenyl)thiazol-4-yl)propan-2-yl)carbamate], the values for the half-maximal inhibitory concentration (IC50) in assay [1] and in assay [2] were 106 nM and 19.8 nM, respectively.

In the case of `COCCOc1ccc(-c2ccc(C(C)(C)NC(=O)OC3CN4CCC3CC4)nc2)cc1` (stereo not drawn) [Compound 21, Quinuclidin-3-yl 2-(5-(4-(2-methoxyethoxy)phenyl)pyridin-2-yl)propan-2-ylcarbamate], the IC50 in assay [1] was determined as 266 nM; in assay [2], 11.1 nM.

Turning to `CC(C)(NC(=O)OC1CN2CCC1CC2)c1ccc(-c2ccc(OCCCC#N)cc2)cc1` (stereo not drawn) [Compound 22, Quinuclidin-3-yl(2-(4′-(3-cyanopropoxy)-[1,1′-biphenyl]-4-yl)propan-2-yl)carbamate], the IC50 in assay [1] stood at 86.5 nM; in assay [2] it was 3.2 nM.

For the molecule `CC(C)(NC(=O)OC1CN2CCC1CC2)c1ccc(-c2ccc(OCC#N)cc2)cc1` (stereo not drawn) [Compound 23], the figures for the 50% inhibitory concentration (IC50) in assay [1] and in assay [2] were 47.7 nM and 0.8 nM, respectively.

B1: agalsidase beta: historical control arm: patients treated with agalsidase beta (Fabrazyme) in a previously completed placebo-controlled phase 3 trial (protein, UniProt P06280 32-429, looked up)
Alpha-galactosidase A: LDNGLARTPTMGWLHWERFMCNLDCQEEPDSCISEKLFMEMAELMVSEGWKDAGYEYLCIDDCWMAPQRDSEGRLQADPQRFPHGIRQLANYVHSKGLKLGIYADVGNKTCAGFPGSFGYYDIDAQTFADWGVDLLKFDGCYCDSLENLADGYKHMSLALNRTGRSIVYSCEWPLYMWPFQKPNYTEIRQYCNHWRNFADIDDSWKSIKSILDWTSFNQERIVDVAGPGGWNDPDMLVIGNFGLSWNQQVTQMALWAIMAAPLFMSNDLRHISPQAKALLQDKDVIAINQDPLGKQGYQLRQGDNFEVWERPLSGLAWAVAMINRQEIGGPRSYTIAVASLGKGVACNPACFITQLLPVKRKLGFYEWTSRLRSHINPTGTVLLQLENTMQMSLKDLL
modifications: agalsidase beta
notes: historical control arm: patients treated with agalsidase beta (Fabrazyme) in a previously completed placebo-controlled phase 3 trial
As to B1, the “Plasma GL-3 levels” value in assay [3] is 4.44 µg/mL.
